Reference: PMC6423518 (Bioorganic & medicinal chemistry letters, 2018)
“Also recorded” adds a separate entry of the source.

Test system: MDA-MB-231 cells
Experiment: Acridine orange/ethidium bromide
Assay type: cell-based, human
Conditions: fluorescence microscopy

COc1cc(/C=C/C(=O)c2c3[nH]c4ccccc4c3cc[n+]2Cc2ccccc2)cc(OC)c1OC.[Br-] [Compound 13g]
Cell death / apoptosis by AO/EB staining: induces apoptosis; also recorded: markedly induced cell death

COc1cccc2c1C(=O)c1c(O)c3c(c(O)c1C2=O)C[C@@](O)(C(=O)CO)C[C@@H]3O[C@H]1C[C@H](N)[C@H](O)[C@H](C)O1 [Doxorubicin, reference compound]
Cell death / apoptosis by AO/EB staining: morphological changes characteristic of apoptotic cells formation
